# Reference: patent publication US20220008452A1, “COMPOSITIONS AND METHODS FOR TREATING OR PREVENTING NASH, NAFLD, DIABETES, ATHEROSCLEROSIS, AND/OR OBESITY” (YALE UNIVERSITY, priority 2018, published 2022)
# What was measured:
# MEST = assay: Relative mRNA expression of MEST by RT-PCR in endothelial cells; assay type: cell-based, human
# Experimental: (§1) Human umbilical vein endothelial cells (HUVECs) were cultured in EBM-2 (Lonza) and THP-1 monocytes (ATCC) were grown in RPM. Human coronary microvascular endothelial cells (HCMECs) (Lonza) were cultured in EBM (Lonza). For experimental treatments, HUVECs and HMVECs (passages 3 to 8) were grown to 70-90% confluence. Simvastatin (Sigma) was activated to its active form as previously described. Atorvastatin (Sigma) was solubilized in DMSO and used at 10 μM concentration. Transient transfection of plasmids was performed with Fugene HD (Promega) according to the manufacturer's instructions. For small interfering RNA (Invitrogen) and miR-335-5p mimic (Dharmacon) transfections, each oligonucleotide formulation and respective controls (control siRNA: 12935112 (Invitrogen), miRNA mimic control: 0010000105 (Dharmacon), 50 nM) were complexed with Lipofectamine RNAiMAX (Invitrogen) according to the manufacturer's instructions.
# (§2) Total RNA was extracted with the miRNeasy Mini kit (Qiagen). […] RT-PCR was performed with TaqMan probes for genes and miRNAs (ThermoFisher), or SYBR green assays for genes (Bio-Rad). All miRNA data were normalized to the internal control small RNAs U6 for human samples. For the mRNA samples, ribosomal 18S was used as an internal control. Individual RT-PCRs were performed on a […] (Bio-Rad) according to the manufacturer's instructions.
# miR-335-5p = assay: Relative expression of miR-335-5p by RT-PCR in endothelial cells; assay type: cell-based, human
# Experimental: as §1, §2
# CHFR = assay: Relative mRNA and protein expression of CHFR (quantitative PCR, western blot)
# miR335 = miR335 inhibitor given to mice on 60% high fat diet; assay type: in vivo; conditions: 60% HFD, 5 mg/kg IP, vs control inhibitor
# Experimental: FIG. 14 is a schematic outlining time course of an experiment comparing animals administered miR335 inhibitors to control, on a high fat diet. The mice were injected 5 mg/kg of miR335 inhibitor or its control twice a week for 4 weeks. Nonproprietary in vivo grade miRNA inhibitor purchased from Qiagen/Exiqon. Sequence: […] (SEQ ID NO:3; 100% complementary to […]).
# The mice are subject to 6 weeks of 60% HFD. 5 mg/kg of miR335 inhibitor and its control was given to mice by IP injection. 2 weeks after, HFD was started.
# The mir335−/− mice and Apoe−/− mice have been previously described. All animals were maintained on a C57BL/6 background. For mice fed a high-fat diet, mice were administered a 60% fat diet (TD-06414, Envigo) or 40% fat diet with 1.25% added cholesterol (DI2108C, Research Diet) for designated times before tissue and serum were collected.
# Frozen 10-μm cryosections from the liver were washed with distilled water for 10 min. After the washing, sections were put into Eosin solution for 2 min. After rinsing with distilled water, sections were put into Hematoxylin solution for 5 min. After washing with distilled water for 15 min, the slides were mounted with DPX mountant (Sigma). Sections were imaged using bright-field microscopy.
# Plasma was assessed for alanine aminotransferase (ALT) (Pointe Scientific) following the manufacturer's instructions. Briefly, 20 μl of each plasma sample was added in the 200 μl of the reagent and incubated at 37° C. After 1 min incubation, samples were put on the plate and the plate was read at 340 nm with a microplate reader (BioTek Synergy 2). The ALT values were calculated according to the manufacturer's instructions.
Molecule,MEST expression (MEST; HCMECs),MEST expression (MEST; HUVECs),miR-335 expression (miR-335-5p; HCMECs),miR-335 expression (miR-335-5p; HUVECs),CHFR mRNA and protein expression (CHFR; HCMECs),CHFR mRNA and protein expression (CHFR; HUVECs),elevation in serum ALT associated with high fat diet (miR335),fat accumulation in the liver (miR335),liver histology (miR335),liver weight (miR335),weight gain associated with a high fat diet (miR335)
CC(C)c1c(C(=O)Nc2ccccc2)c(-c2ccccc2)c(-c2ccc(F)cc2)n1CC[C@@H](O)C[C@@H](O)CC(=O)O [atorvastatin],significantly downregulated,significantly downregulated,significant decrease,significant decrease,significantly upregulated,significantly upregulated,–,–,–,–,–
"miR335 inhibitor: Nonproprietary in vivo grade miRNA inhibitor purchased from Qiagen/Exiqon; sequence ACATTTTTCGTTATTGCTCTTGA (SEQ ID NO:3), complementary to miR-335-5p (in vivo grade miRNA inhibitor from Exiqon, chemistry not given here, further chemistry not given here)",–,–,–,–,–,–,attenuated,attenuated,preserved,decreased,suppressed
